# US20120029190A1, “COMPOUNDS FOR TREATING DISORDERS MEDIATED BY METABOTROPIC GLUTAMATE RECEPTOR 5, AND METHODS OF USE THEREOF” (priority 2009, published 2012)
# Molecular target: T1, human recombinant mGluR5 receptor (Homo sapiens, UniProt P41594)
# T1 construct: expressed in transfected cells; expression induced with doxycycline
# Experiment: mGluR5 in vitro functional assay (aequorin cell line, inhibition of glutamate EC80 response)
# Assay type: cell-based
# Conditions: Table 1; aequorin cell line expressing human mGluR5, reference agonist glutamate at EC80; obtained in duplicate; read-out: IC50
# Description: B. mGluR5 In Vitro Functional Assay
# The functional assay utilized an aequorin cell line expressing human recombinant mGluR5 receptor, an inducible cell line that expresses the human receptor under the control of a promoter induced by doxycycline.
# mGluR5 cells in mid-log phase, grown 18 hours prior to the test in antibiotic-free media supplemented with doxycycline (600 ng/mL), were detached by gentle flushing with PBS-EDTA ([…]). The cells were recovered by centrifugation and resuspended in assay buffer (HBSS, […], 3 ug/mL glutamate-pyruvate transaminase, […] MEM sodium pyruvate, 0.1% BSA protease-free). Cells were incubated at room temperature for at least 4 hours with Coelenterazine h (Molecular Probes). The cell suspension (60 uL) containing the test compound was mixed with a solution of reference agonist (30 uL) at its EC80, following an incubation of 3 min. after the first injection. The resulting emission of light was recorded using a Hamamatsu Functional Drug Screening System 6000 (FDSS 6000). To standardize the emission of recorded light (determination of the “100% signal’) across plates and across different experiments, some of the wells contained 100 uM digitonin or a saturating concentration (20 mM) of ATP. Plates also contained the reference agonist (glutamate) at a concentration equivalent to the EC80 obtained during assay validation. Percentages of inhibition were calculated on the basis of the activation induced by the reference agonist at a concentration equal to the EC80. Dose-response data were analyzed with XLFit (IDBS) software using nonlinear regression applied to a sigmoidal dose-response model.
# T1 sequence (P41594 21-1212): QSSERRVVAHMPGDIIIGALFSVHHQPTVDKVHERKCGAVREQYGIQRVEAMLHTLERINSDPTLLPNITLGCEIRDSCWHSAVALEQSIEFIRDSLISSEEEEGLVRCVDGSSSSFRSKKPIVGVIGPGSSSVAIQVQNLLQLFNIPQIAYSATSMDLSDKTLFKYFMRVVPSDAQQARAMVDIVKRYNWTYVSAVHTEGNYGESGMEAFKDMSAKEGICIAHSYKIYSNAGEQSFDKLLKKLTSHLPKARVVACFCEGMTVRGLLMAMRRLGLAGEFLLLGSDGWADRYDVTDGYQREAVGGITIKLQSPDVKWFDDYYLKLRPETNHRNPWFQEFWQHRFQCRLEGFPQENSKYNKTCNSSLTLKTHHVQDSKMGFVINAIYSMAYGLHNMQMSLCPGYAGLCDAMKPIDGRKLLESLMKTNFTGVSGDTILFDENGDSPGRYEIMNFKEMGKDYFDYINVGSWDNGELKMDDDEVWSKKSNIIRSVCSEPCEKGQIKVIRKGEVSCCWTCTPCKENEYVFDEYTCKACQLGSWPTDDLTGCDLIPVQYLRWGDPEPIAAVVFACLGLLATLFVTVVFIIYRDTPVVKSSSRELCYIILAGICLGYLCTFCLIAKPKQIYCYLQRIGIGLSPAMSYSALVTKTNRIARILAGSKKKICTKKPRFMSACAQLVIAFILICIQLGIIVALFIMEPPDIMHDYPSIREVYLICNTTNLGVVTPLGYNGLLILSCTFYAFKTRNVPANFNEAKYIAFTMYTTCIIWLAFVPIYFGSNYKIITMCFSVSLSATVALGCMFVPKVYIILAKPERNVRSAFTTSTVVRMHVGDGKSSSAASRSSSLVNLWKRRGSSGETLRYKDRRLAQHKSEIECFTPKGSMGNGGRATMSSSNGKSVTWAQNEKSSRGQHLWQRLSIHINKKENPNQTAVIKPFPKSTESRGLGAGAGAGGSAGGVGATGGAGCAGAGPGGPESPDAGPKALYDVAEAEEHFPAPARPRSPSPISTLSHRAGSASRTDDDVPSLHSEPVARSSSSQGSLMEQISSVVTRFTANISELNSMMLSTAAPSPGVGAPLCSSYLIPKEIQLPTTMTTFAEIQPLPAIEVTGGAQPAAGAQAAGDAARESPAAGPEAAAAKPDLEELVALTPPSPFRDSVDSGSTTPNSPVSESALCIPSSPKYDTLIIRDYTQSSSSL
row,IC50,SMILES
1,< 10 µM,"N#Cc1cccc(N2CCc3nc(-c4ccncc4)oc3C2)c1 [Compound 75, 3-(2-(Pyridin-4-yl)-6,7-dihydrooxazolo[5,4-c]pyridin-5(4H)-yl)benzonitrile]"
2,< 10 µM,"Cc1ccnc(-c2nc3c(o2)CN(c2cccc(C#N)c2)CC3)c1 [Compound 76, 3-(2-(4-Methylpyridin-2-yl)-6,7-dihydrooxazolo[5,4-c]pyridin-5(4H)-yl)benzonitrile]"
3,> 10 µM,"N#Cc1cccc(N2CCc3nc(-c4cccnc4)oc3C2)c1 [Compound 77, 3-(2-(Pyridin-3-yl)-6,7-dihydrooxazolo[5,4-c]pyridin-5(4H)-yl)benzonitrile]"
4,> 10 µM,"N#Cc1cccc(N2CCc3oc(-c4ccncc4)nc3C2)c1 [Compound 78, 3-(2-(Pyridin-4-yl)-6,7-dihydrooxazolo[4,5-c]pyridin-5(4H)-yl)benzonitrile]"
5,> 10 µM,"Cc1cc(-c2nc3c(o2)CCN(c2ccccn2)C3)on1 [Compound 79, 2-(3-Methylisoxazol-5-yl)-5-(pyridin-2-yl)-4,5,6,7-tetrahydrooxazolo[4,5-c]pyridine]"
6,< 10 µM,"N#Cc1cc(F)cc(N2CCc3oc(-c4ncco4)nc3C2)c1 [Compound 80, 3-Fluoro-5-(2-(oxazol-2-yl)-6,7-dihydrooxazolo[4,5-c]pyridin-5(4H)-yl)benzonitrile]"
7,< 1 µM,"CC1Cc2nc(-c3ccccn3)oc2CN1c1cc(F)cc(C#N)c1 (stereo not drawn) [Compound 83, 3-Fluoro-5-(6-methyl-2-(pyridin-2-yl)-6,7-dihydrooxazolo[5,4-c]pyridin-5(4H)-yl)benzonitrile]"
8,< 1 µM,"N#Cc1cccc(N2Cc3nc(-c4ccccn4)oc3C2)c1 [Compound 84, 3-(2-(Pyridin-2-yl)-4H-pyrrolo[3,4-d]oxazol-5(6H)-yl)benzonitrile]"
9,< 1 µM,"N#Cc1cccnc1N1Cc2nc(-c3ccccn3)oc2C1 [Compound 85, 2-(2-(Pyridin-2-yl)-4H-pyrrolo[3,4-d]oxazol-5(6H)-yl)pyridine-3-carbonitrile]"
10,> 10 µM,"N#Cc1cccc(-c2nc3c(o2)CN(c2ccccn2)C3)c1 [Compound 86, 3-(5-(Pyridin-2-yl)-5,6-dihydro-4H-pyrrolo[3,4-d]oxazol-2-yl)benzonitrile]"
11,< 1 µM,"N#Cc1cccc(-c2nc3c(o2)CN(c2ncccc2C#N)C3)c1 [Compound 87, 2-(2-(3-Cyanophenyl)-4H-pyrrolo[3,4-d]oxazol-5(6H)-yl)nicotinonitrile]"
12,< 1 µM,"N#Cc1cccc(N2CCc3nc(-c4ccccn4)oc3CC2)c1 [Compound 88, 3-(2-(Pyridin-2-yl)-7,8-dihydro-4H-oxazolo[5,4-d]azepin-6(5H)-yl)benzonitrile]"
13,< 1 µM,"N#Cc1cc(F)cc(N2CCc3nc(-c4ccccn4)oc3CC2)c1 [Compound 89, 3-Fluoro-5-(2-(pyridin-2-yl)-7,8-dihydro-4H-oxazolo[5,4-d]azepin-6(5H)-yl)benzonitrile]"
14,< 1 µM,"N#Cc1cc(F)cc(N2CCCc3nc(-c4ccccn4)oc3C2)c1 [Compound 90, 3-Fluoro-5-(2-(pyridin-2-yl)-7,8-dihydro-4H-oxazolo[5,4-c]azepin-5(6H)-yl)benzonitrile]"
15,< 1 µM,"COc1cc(C#N)cc(N2CCCc3nc(-c4ccccn4)oc3C2)c1 [Compound 91, 3-Methoxy-5-(2-(pyridin-2-yl)-7,8-dihydro-4H-oxazolo[5,4-c]azepin-5(6H)-yl)benzonitrile]"
16,< 1 µM,"N#Cc1cccc(N2CCCc3nc(-c4ncccn4)oc3C2)c1 [Compound 92, 3-(2-(Pyrimidin-2-yl)-7,8-dihydro-4H-oxazolo[5,4-c]azepin-5(6H)-yl)benzonitrile]"
17,< 1 µM,"N#Cc1cccc(N2CCCc3nc(-c4ccccn4)oc3C2)c1 [Compound 93, 3-(2-(Pyridin-2-yl)-7,8-dihydro-4H-oxazolo[5,4-c]azepin-5(6H)-yl)benzonitrile]"
18,< 1 µM,"N#Cc1cc(N2CCCc3nc(-c4ccccn4)oc3C2)cc(C(F)(F)F)c1 [Compound 94, 3-(2-(Pyridin-2-yl)-7,8-dihydro-4H-oxazolo[5,4-c]azepin-5(6H)-yl)-5-(trifluoromethyl)benzonitrile]"
19,< 10 µM,"FC(F)(F)c1cccc(N2CCCc3nc(-c4ccccn4)oc3C2)c1 [Compound 95, 2-(Pyridin-2-yl)-5-(3-(trifluoromethyl)phenyl)-5,6,7,8-tetrahydro-4H-oxazolo[5,4-c]azepine]"

row,IC50,SMILES
1,< 1 µM,"N#Cc1cc(F)cc(N2CCCc3nc(-c4ccc(F)cn4)oc3C2)c1 [Compound 96, 3-Fluoro-5-(2-(5-fluoropyridin-2-yl)-7,8-dihydro-4H-oxazolo[5,4-c]azepin-5(6H)-yl)benzonitrile]"
2,< 1 µM,"N#Cc1cccc(N2CCCc3nc(-c4ccc(F)cn4)oc3C2)c1 [Compound 97, 3-(2-(5-Fluoropyridin-2-yl)-7,8-dihydro-4H-oxazolo[5,4-c]azepin-5(6H)-yl)benzonitrile]"
3,< 1 µM,"N#Cc1cc(F)cc(N2CCCc3oc(-c4ccccn4)nc3C2)c1 [Compound 98, 3-Fluoro-5-(2-(pyridin-2-yl)-7,8-dihydro-4H-oxazolo[4,5-c]azepin-5(6H)-yl)benzonitrile]"
4,< 1 µM,"N#Cc1cccc(N2CCCc3oc(-c4ccccn4)nc3C2)c1 [Compound 99, 3-(2-(Pyridin-2-yl)-7,8-dihydro-4H-oxazolo[4,5-c]azepin-5(6H)-yl)benzonitrile]"
5,< 1 µM,"Fc1cccc(N2CCCc3oc(-c4ccccn4)nc3C2)c1 [Compound 100, 5-(3-Fluorophenyl)-2-(pyridin-2-yl)-5,6,7,8-tetrahydro-4H-oxazolo[4,5-c]azepine]"
6,< 1 µM,"Fc1cc(F)cc(N2CCCc3oc(-c4ccccn4)nc3C2)c1 [Compound 101, 5-(3,5-Difluorophenyl)-2-(pyridin-2-yl)-5,6,7,8-tetrahydro-4H-oxazolo[4,5-c]azepine]"
7,< 1 µM,"Clc1cccc(N2CCCc3oc(-c4ccccn4)nc3C2)c1 [Compound 102, 5-(3-Chlorophenyl)-2-(pyridin-2-yl)-5,6,7,8-tetrahydro-4H-oxazolo[4,5-c]azepine]"
8,< 1 µM,"COc1cccc(N2CCCc3oc(-c4ccccn4)nc3C2)n1 [Compound 103, 5-(6-Methoxypyridin-2-yl)-2-(pyridin-2-yl)-5,6,7,8-tetrahydro-4H-oxazolo[4,5-c]azepine]"
9,< 1 µM,"Fc1cncc(N2CCCc3oc(-c4ccccn4)nc3C2)c1 [Compound 104, 5-(5-Fluoropyridin-3-yl)-2-(pyridin-2-yl)-5,6,7,8-tetrahydro-4H-oxazolo[4,5-c]azepine]"
10,< 10 µM,"N#Cc1cc(F)cc(N2CCc3nc(-c4ccccn4)sc3C2)c1 [Compound 105, 3-Fluoro-5-(2-(pyridin-2-yl)-6,7-dihydro-thiazolo[5,4-c]pyridin-5(4H)-yl)benzonitrile]"
11,< 10 µM,"Clc1cccc(-c2cn3c(n2)CN(c2cccnc2)CC3)c1 [Compound 106, 2-(3-Chlorophenyl)-7-(pyridin-3-yl)-5,6,7,8-tetrahydroimidazo[1,2-a]pyrazine]"
12,< 10 µM,"Clc1cccc(-c2cn3c(n2)CN(c2ccccn2)CC3)c1 [Compound 107, 2-(3-Chlorophenyl)-7-(pyridin-2-yl)-5,6,7,8-tetrahydroimidazol[1,2-a]pyrazine]"
13,< 10 µM,"N#Cc1cccnc1N1CCn2cc(-c3cccc(Cl)c3)nc2C1 [Compound 108, 2-(2-(3-Chlorophenyl)-5,6-dihydroimidazo[1,2-a]pyrazin-7(8H)-yl)nicotinotrile]"
14,< 1 µM,"N#Cc1cc(F)cc(N2CCn3cc(-c4ccccn4)nc3C2)c1 [Compound 109, 3-Fluoro-5-(2(pyridin-2-yl)-5,6-dihydroimidazo-[1,2-a]pyrazin-7(8H)-yl)benzonitrile]"
15,< 1 µM,"N#Cc1cccc(N2CCn3cc(-c4ccccn4)nc3C2)c1 [Compound 110, 3-(2(Pyridin-2-yl)-5,6-dihydroimidazo[1,2-a]pyrazin-7(8H)-yl)benzonitrile]"
16,> 10 µM,"N#Cc1cc(F)cc(N2CCc3nc(-c4ccccn4)[nH]c3C2)c1 [Compound 111, 3-Fluoro-5-(2-(pyridin-2-yl)-6,7-dihydro-3H-imidazo[4,5-c]pyridin-5(4H)-yl)benzonitrile]"
17,< 1 µM,"N#Cc1cc(F)cc(N2CCn3nc(-c4ccccn4)nc3C2)c1 [Compound 112, 3-Fluoro-5-(2-(pyridin-2-yl)-5,6-dihydro-[1,2,4]triazolo[1,5-a]pyrazin-7(8H)-yl)benzonitrile]"
18,< 1 µM,"Clc1cccc(N2CCn3nc(-c4ccccn4)nc3C2)c1 [Compound 113, 7-(3-Chlorophenyl)-2-(pyridin-2-yl)-5,6,7,8-tetrahydro-[1,2,4]triazolo[1,5-a]pyrazine]"
19,< 1 µM,"Fc1cccc(N2CCn3nc(-c4ccccn4)nc3C2)c1 [Compound 114, 7-(3-Fluorophenyl)-2-(pyridin-2-yl)-5,6,7,8-tetrahydro-[1,2,4]triazolo[1,5-a]pyrazine]"

# Same assay, conditions: Table 2; aequorin cell line expressing human mGluR5, reference agonist glutamate at EC80; obtained in duplicate; read-out: IC50
row,IC50,SMILES
1,< 1 µM,"Clc1cccc(N2CCc3oc(-c4ccccn4)nc3C2)c1 [Compound 115, 5-(3-chlorophenyl)-2-(pyridin-2-yl)-4,5,6,7-tetrahydrooxazolo[4,5-c]pyridine]"
